Patent US5677152A, “Nucleic acid amplification using a reersibly inactivated thermostable enzyme” (Roche Molecular Systems, Inc., priority 1996, dated 1997)

B1: citraconylated rTth: citraconylated thermostable DNA polymerase from Thermus thermophilus (protein, UniProt P52028 1-834, looked up)
DNA polymerase I, thermostable: MEAMLPLFEPKGRVLLVDGHHLAYRTFFALKGLTTSRGEPVQAVYGFAKSLLKALKEDGYKAVFVVFDAKAPSFRHEAYEAYKAGRAPTPEDFPRQLALIKELVDLLGFTRLEVPGYEADDVLATLAKKAEKEGYEVRILTADRDLYQLVSDRVAVLHPEGHLITPEWLWEKYGLRPEQWVDFRALVGDPSDNLPGVKGIGEKTALKLLKEWGSLENLLKNLDRVKPENVREKIKAHLEDLRLSLELSRVRTDLPLEVDLAQGREPDREGLRAFLERLEFGSLLHEFGLLEAPAPLEEAPWPPPEGAFVGFVLSRPEPMWAELKALAACRDGRVHRAADPLAGLKDLKEVRGLLAKDLAVLASREGLDLVPGDDPMLLAYLLDPSNTTPEGVARRYGGEWTEDAAHRALLSERLHRNLLKRLEGEEKLLWLYHEVEKPLSRVLAHMEATGVRLDVAYLQALSLELAEEIRRLEEEVFRLAGHPFNLNSRDQLERVLFDELRLPALGKTQKTGKRSTSAAVLEALREAHPIVEKILQHRELTKLKNTYVDPLPSLVHPRTGRLHTRFNQTATATGRLSSSDPNLQNIPVRTPLGQRIRRAFVAEAGWALVALDYSQIELRVLAHLSGDENLIRVFQEGKDIHTQTASWMFGVPPEAVDPLMRRAAKTVNFGVLYGMSAHRLSQELAIPYEEAVAFIERYFQSFPKVRAWIEKTLEEGRKRGYVETLFGRRRYVPDLNARVKSVREAAERMAFNMPVQGTAADLMKLAMVKLFPRLREMGARMLLQVHDELLLEAPQARAEEVAALAKEAMEKAYPLAVPLEVEVGMGEDWLSAKG
modifications: citraconylated

Experiments:
HIV-1 genomic sequence [1] = assay: Effect of pre-reaction incubation time on PCR product (HIV-1 model system); assay type: biochemical; settings: for amplified product without a pre-reaction incubation (FIG. 4): 0 minutes pre-reaction incubation, compared with extended incubation
Experimental: Amplifications were carried out using the citraconylated and cis-aconitylated Taq DNA polymerases prepared as described above. For each set of amplification conditions, Taq DNA polymerases modified using a 80-fold and a 160-fold molar excess of citaconic anhydride, and a 90-fold and a 180-fold molar excess of cis-aconitic anhydride were used. Amplifications were carried out using the HIV-1 model system described in Example 6, above, except that the initial pre-reaction incubation was varied. For each enzyme preparation, amplifications were carried out using pre-reaction incubations of 12, 6, 3, and 0 minutes.
As noted above, the pre-reaction incubation step also serves as the initial denaturation step. Each cycle of a PCR begins with a denaturation step. Immediately following the initial pre-reaction incubation carried out at 95° C. for 12, 6, 3, or 0 minutes, each reaction mixture is incubated at 94° C. for 1 minute during the denaturation step of the first cycle. Thus, even when no pre-reaction incubation was used, enzyme activity is recovered during the denaturation step of the initial cycles.
The amplification products were analyzed by agarose gel electrophoresis. The band corresponding to the amplified target sequence is indicated. Bands appearing on the gel other than the band which corresponds to the amplified target sequence correspond to the products generated by the non-specific amplification of non-target sequences.

HIV-1 genomic sequence [2] = assay: Effect of amplification cycle number on PCR product (HIV-1 model system); assay type: biochemical; settings: no pre-reaction incubation; 39, 43, 48, 60 cycles
Experimental: Amplifications were carried out using the Taq DNA polymerases modified using a 80-fold and a 160-fold molar excess of citraconic anhydride, and a 90-fold and a 180-fold molar excess of cis-aconitic anhydride. The Amplifications were carried out essentially as described above using the HIV-1 model system described in Example 6, except that the initial pre-reaction incubation and cycle numbers were varied. For each enzyme preparation, amplifications were carried out using the following conditions: […]
The amplification products were analyzed by agarose gel electrophoresis.

[3] = test system: cloned HTLV-I genomic sequence; assay: PCR amplification of HTLV-I with citraconylated Taq DNA polymerase, agarose gel analysis; assay type: biochemical; settings: 30 copies HTLV-I template; pre-reaction incubation 90° C. for 10 minutes; enzyme dilutions 1/10-1/80
Experimental: Amplifications were carried out using 1/20, 1/40, and 1/80 dilutions of the 240× modified Taq DNA polymerase described in Example 2. Dilutions were made in a buffer consisting of 20 mM Tris-HCl, pH 8.0 (at room temperature), 100 mM KCl, 0.1 mM EDTA (ethylenediaminetetraacetic acid), 1 mM DTT (dithiothreitol), 50% glycerol, 0.5% Tween 20, 0.5% Nonidet P40 (AmpliTaq®storage buffer, Perkin Elmer, Norwalk, Conn.). For comparison, amplifications also were carried out using 1/10, 1/20, 1/40, and 1/80 dilutions of unmodified Taq DNA polymerase.
A cloned HTLV-I genomic sequence was amplified using primers SK432 and SK111. The primer sequences are provided in U.S. Pat. No. 5,418,149, incorporated herein by reference. The PCR was carried out in a 100 μl reaction volume under the following reaction conditions.
30 copies of HTLV-I DNA template
(§1) 200 μM dATP, dCTP, and dGTP
0.5 μl of citraconylated Taq DNA polymerase solution
(§2) 1 unit of UNG (Perkin Elmer, Norwalk, Conn.) […]
The amplified products were analyzed by 4% agarose gel electrophoresis using a 1× TBE (0.089M Tris, 0.089M boric acid, 0.0025M disodium EDTA) running buffer. Electrophoresis was carried out at 100 volts for approximately 2 hours. Ethidium bromide (0.5 μg/ml) was added following electrophoresis to stain any DNA present. The gel was destained in 1× TBE and the ethidium bromide-stained bands of DNA were visualized using UV irradiation. […]

HIV-1 genomic sequence [4] = assay: PCR amplification of HIV-1 with citraconylated DNA polymerases, agarose gel analysis; assay type: biochemical; settings: 100 copies HIV-1 template; pre-reaction incubation 95° C. for 12 minutes; enzyme dilutions 1/10-1/80
Experimental: Amplifications were carried out using dilutions of modified DNA polymerases. Dilutions were made in a buffer consisting of 20 mM Tris-HCl, pH 8.0 (at room temperature), 100 mM KCl,0.1 mM EDTA (ethylenediaminetetraacetic acid), 1 mM DTT (dithiothreitol), 50% glycerol, 0.5% Tween 20, 0.5% Nonidet P40 (AmpliTaq® storage buffer, Perkin Elmer, Norwalk, Conn.).
An HIV-1 genomic sequence was amplified using primers SK145 and SK431 (Perkin Elmer, Norwalk, Conn.). The PCR was carried out in a 100 μl reaction volume under the following reaction conditions.
100 copies of HIV-1 DNA template
as §1
0.5 μl of DNA polymerase solution
as §2
The pre-reaction incubation step also serves as the initial denaturation step. An initial denaturation step is routinely used in a typical amplification reaction to insure complete denaturation of the double-stranded target. Each cycle of the PCR begins with a denaturation step of 94° C. for 1 minute. Thus, immediately following the initial pre-reaction incubation carried out at 95° C. for 12 minutes, the reaction mixture is incubated at 94° C. for 1 minute during the denaturation step of the first cycle.
The amplified products were analyzed by agarose gel electrophoresis (100 ml of 3% NuSieve and 0.5% SeaChem) using a 1× TBE (0.089M Tris, 0.089M boric acid, 0.0025M disodium EDTA) running buffer. Electrophoresis was carried out at 100 volts for approximately 1 hour. Ethidium bromide (0.5 μg/ml) was added following electrophoresis to stain any DNA present. The gel was destained in TBE and the ethidium bromide-stained bands of DNA were visualized using UV irradiation.
Dilutions (1/10, 1/20, 1/40, and 1/80) of the citraconylated DNA polymerases described in Example 5 and the 240× citriconylated Taq DNA polymerase described in Example 2 were used in amplifications of HIV-1 nucleic acid and the amplified products were anaylzed by agarose gel electrophoresis. For comparison, amplifications were carried out using dilutions of unmodified Taq DNA polymerase. […]

[5] = Storage stability of inactivated enzyme; assay type: physicochemical; settings: stored at 25° C.

Row | Molecule | amplified product without a pre-reaction incubation (FIG. 4) (HIV-1 genomic sequence [1]) | amplified product band over pre-reaction incubation times (FIG. 4) (HIV-1 genomic sequence [1]; pre-reaction incubations of 12, 6, 3 and 0 minutes at 95° C.) | effect of increasing the amplification cycle number on amplified product (FIG. 5) (HIV-1 genomic sequence [2]) | amplified target band versus non-specific amplification products (FIG. 2) [3] | amplified target band versus non-specific amplification products (FIG. 3) (HIV-1 genomic sequence [4]) | pre-reaction incubation required to obtain the maximum amount of amplified product (HIV-1 genomic sequence [1]; 95° C. pre-reaction incubation) | storage stability: time enzyme remains inactivated [5]
1 | cis-aconitylated DNA polymerase: Taq DNA polymerase modified using cis-aconitic anhydride (90× and 180× preparations) | nearly as much product as the amplifications using an extended pre-reaction incubations | all pre-reaction incubation times resulted in a strong band corresponding to amplified product | The effect was smallest | – | – | – | –
2 | citraconylated Taq DNA polymerase: Taq DNA polymerase modified using citraconic anhydride; 240× in Examples 4 and 6, 80× and 160× in Examples 9 and 10 | significantly less amplified product | – | – | significant increase in the intensity of the band corresponding to the amplified target sequence, and a significant decrease in the intensity of the bands corresponding to non-specific amplification products | intense band corresponding to the amplified target sequence for all but the 1/80 dilution | at least 3 minutes | remain inactivated for at least four weeks
3 | unmodified Taq DNA polymerase: Taq DNA polymerase (AmpliTaq®, Perkin Elmer), unmodified comparison enzyme [reference compound] | – | – | – | predominantly non-specific amplification product | predominantly non-specific amplification product | – | –
4 | B1 | – | – | – | – | greater production of specific amplification product than seen in amplifications using unmodified Taq DNA polymerase | – | –
